The source of these data is US12358921B2, “Antiviral heterocyclic compounds” (priority 2022, dated 2025).

What all share (type): cell-based
Test [1] relates to HUMAN RSV-A (“LONG” STRAIN). The test can be described thus: RSV-A assay (CPE, ATPlite) in Hep-2 cells. The note with it: human respiratory syncytial virus, 120 h, MOI 0.1, 5-day incubation. In short, it runs like this:
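Protection from RSV cytopathic effect read by ATP luminescence (ATPlite) after 5-day culture. Genotype A "Long" virus added at MOI 0.1 to Hep-2 monolayers at 8,000 cells/well, pre-dosed with duplicate 2-fold compound dilutions; controls include infected untreated and uninfected wells. EC50 values binned into ranges.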

The test system of test [2] is hMPV A2 TN/94-49. The test can be described thus: HMPV antiviral assay Method 1 (LLC-MK2 cells, ATP-Lite). The note with it: hMPV A2 TN/94-49, LLC-MK2 cells. The essentials:
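LLC-MK2 cells infected in suspension with hMPV A2 TN/94-49 at MOI 0.005, 5,000 cells/well, in serum-free OptiMEM with 2 μg/mL TPCK-trypsin (final) and CaCl2; compounds in duplicate, 10 points, 2 μM top, 2.5-fold dilutions. After 7 days at 37 °C, cell health by ATP-Lite luminescence; EC50 by four-parameter fit.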

Test [3] has as its system hMPV A2 TN/94-49. The test can be described thus: HMPV antiviral assay Method 2 (LLC-MK2 cells with CP-100-356, ATP-Lite). The note with it: hMPV A2 TN/94-49, LLC-MK2 cells, 4 μM CP-100-356, Method 2. The essentials: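 The protective effect was measured after 7 days at 37 °C by ATP-Lite luminescence and expressed as % cell health relative to virus-only and cells-only wells, with EC50 from a four-parameter logistic. Cells were LLC-MK2 infected with strain A2 TN/94-49 (MOI 0.16) with final 2 μM CP-100-356 and 2 μg/mL TPCK-trypsin; 10 duplicate concentrations from 200 nM, 2.5-fold steps.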

The structures appear in SMILES notation. pEC50: −log10 of the molar value.

For the molecule `COc1cc(C(=O)NC[C@@](O)(c2ccccc2)c2cc3c(c(-c4cc(Cl)c(F)cc4F)n2)OC[C@]3(C)C(N)=O)cc2cc(Cl)cnc12` [Example 187], the results for the pEC50 in test [1], in test [2] and in test [3] were more than 6.70, more than 6.30 and more than 6.70, respectively.
Turning to `COc1cc(C(=O)NC[C@@](O)(c2ccccc2)c2cc3c(c(-c4ccc5c(c4)OC(F)(F)O5)n2)OC[C@]3(C)C(N)=O)cc2cn(C3(F)CC3)nc12` [Example 19], the negative logarithm of the EC50 (pEC50) was more than 6.70 in test [1], more than 6.30 in test [2] and more than 6.70 in test [3].
Regarding `COc1cc(C(=O)NC[C@@](O)(c2ccc(C(F)(F)F)cc2)c2cc3c(c(-c4cc(Cl)c(F)cc4F)n2)OC[C@]3(C)C(N)=O)cc2cn(C3CC3)nc12` [Example 130], the pEC50 in test [1] was more than 6.70; in test [2], less than 6.30; in test [3], less than 6.70.
In the same order, the values of `COc1cc(C(=O)NC[C@@](O)(c2ccccc2)c2cc3c(c(-c4ccc(F)c(Cl)c4Cl)n2)OC[C@]3(C)C(N)=O)cc2cc(C)nnc12` [Example 289] are more than 6.70, more than 6.30 and more than 6.70.
The matching figures for `C[C@]1(C(N)=O)COc2c1cc([C@@](O)(CNC(=O)c1cc(OC3CC3)c3nn(C(F)F)cc3c1)c1ccc(F)cc1)nc2-c1ccc2c(c1Cl)OC(F)(F)O2` [Example 265]: more than 6.70, more than 6.30 and more than 6.70.
The matching figures for `COc1ccc([C@](O)(CNC(=O)c2cc(OC)c3nn(C4(F)CC4)cc3c2)c2cc3c(c(-c4cc(Cl)c(F)cc4F)n2)OC[C@]3(C)C(N)=O)cc1` [Example 166]: more than 6.70, more than 6.30 and more than 6.70.
In the case of `COc1cc(C(=O)NC[C@@](O)(c2cccc(F)c2)c2cc3c(c(-c4cc(Cl)c(F)cc4F)n2)OC[C@]3(C)C(N)=O)cc2cc(C3CC3)nn12` [Example 133], the pEC50 in test [1] is more than 6.70; in test [2], more than 6.30; in test [3], more than 6.70.
As to `COc1cc(C(=O)NC[C@](O)(c2cc3c(c(-c4cc(F)c(F)cc4C)n2)OC[C@]3(C)C(N)=O)C2CC2)cc2cn(C3CC3)nc12` [Example 50], the pEC50 in test [1] is more than 6.70; in test [2], less than 6.30; in test [3], more than 6.70.
`COc1cc(C(=O)NC[C@@](O)(c2cccc(F)c2)c2cc3c(c(-c4ccc(F)c(Cl)c4Cl)n2)OC[C@]3(C)C(N)=O)cc2cn(C3CC3)nc12` [Example 268]: the negative logarithm of the EC50 (pEC50) in test [1] is more than 6.70; in test [2], more than 6.30; in test [3] it was more than 6.70.
With `COc1cc(C(=O)NC[C@](O)(c2cc3c(c(-c4cc(Cl)c(F)cc4F)n2)OC[C@]3(C)C(N)=O)c2cccs2)cc2cn(C3CC3)nc12` [Example 474], the negative-log EC50 (pEC50) was more than 6.70 in test [1], more than 6.30 in test [2] and more than 6.70 in test [3].
With `COc1cc(C(=O)NC[C@](O)(c2cc3c(c(-c4ccc(F)c(F)c4C)n2)OC[C@]3(C)C(N)=O)C2CC2)cc2cn(C3CC3)nc12` [Example 70], the pEC50 in test [1] is more than 6.70; in test [2], more than 6.30; in test [3], more than 6.70.
As to `COc1cc(C(=O)NC[C@@](O)(c2ccccc2)c2cc3c(c(-c4cc(C(F)(F)F)ccc4F)n2)OC[C@]3(C)C(N)=O)cc2cn(C3CC3)nc12` [Example 147], the pEC50 was more than 6.70 in test [1], more than 6.30 in test [2] and more than 6.70 in test [3].
For the molecule `[2H]C([2H])([2H])NC(=O)[C@@]1(C)COc2c1cc([C@@](O)(CNC(=O)c1cc(OC)c3nn(C4CC4)cc3c1)c1ccccc1)nc2-c1cc(Cl)c(F)cc1F` [Example 140], the pEC50 in test [1] was more than 6.70; in test [2], more than 6.30; in test [3], more than 6.70.
As for `COc1cc(C(=O)NC[C@@](O)(c2cccc(F)c2)c2cc3c(c(-c4ccc(F)c(Cl)c4Cl)n2)OC[C@]3(C)C(N)=O)cc2oc(C3CC3)nc12` [Example 280], the pEC50 in test [1] is more than 6.70; in test [2], more than 6.30; in test [3], more than 6.70.
`COc1cc(C(=O)NC[C@](O)(c2cc3c(c(-c4ccc(F)c(C)c4Cl)n2)OC[C@]3(C)C(N)=O)C2CC2)cc2cn(C3CC3)nc12` [Example 69]: the pEC50 in test [1] was more than 6.70; in test [2] it was more than 6.30; in test [3], more than 6.70.
As for `COc1cc(C(=O)NC[C@@](O)(c2ccccc2)c2cc3c(c(-c4ccc(F)c(Cl)c4Cl)n2)OC[C@]3(C)C(N)=O)cc2oc(C)nc12` [Example 277], the pEC50 in test [1] was more than 6.70; in test [2] it was more than 6.30; in test [3] it was more than 6.70.
For `[2H]C([2H])([2H])c1nc2ccc(C(=O)NC[C@@](O)(c3cccc(F)c3)c3cc4c(c(-c5ccc(F)c(Cl)c5Cl)n3)OC[C@]4(C)C(N)=O)cc2o1` [Example 281], the negative-log EC50 (pEC50) in test [1] is more than 6.70; in test [2] it was more than 6.30; in test [3], more than 6.70.
Turning to `COc1cc(C(=O)NC[C@@](O)(c2ccccc2)c2cc3c(c(-c4ccc(F)c(F)c4Cl)n2)OC[C@]3(C)C(N)=O)cc2cn(C(F)F)nc12` [Example 213], the negative-log EC50 (pEC50) was more than 6.70 in test [1], more than 6.30 in test [2] and more than 6.70 in test [3].
Consider `COc1cc(C(=O)NC[C@@](O)(c2ccccc2)c2cc3c(c(-c4ccc(F)c(Cl)c4Cl)n2)OC[C@]3(C)C(N)=O)cc2oc(C3CC3)nc12` [Example 278], for which the results for the negative-log EC50 (pEC50) in test [1], in test [2] and in test [3] were more than 6.70, more than 6.30 and more than 6.70, respectively.
Regarding `COc1cc(C(=O)NC[C@@](O)(c2cccc(F)c2)c2cc3c(c(-c4cc(C(F)(F)F)c(F)cc4F)n2)OC[C@]3(C)C(N)=O)cc2cn(C3CC3)nc12` [Example 295], the values for the pEC50 in test [1], in test [2] and in test [3] were more than 6.70, more than 6.30 and more than 6.70, respectively.
`COc1cc(C(=O)NC[C@@](O)(c2cccc(F)c2)c2cc3c(c(-c4cc(Cl)c(F)cc4F)n2)OC[C@]3(C)C(N)=O)cc2cn(C3CC3)nc12` [Example 132]: the pEC50 was more than 6.70 in test [1], more than 6.30 in test [2] and more than 6.70 in test [3].
For the molecule `COc1cc(C(=O)NC[C@@](O)(c2ccccc2)c2cc3c(c(-c4cc(F)c(F)cc4F)n2)OC[C@]3(C)C(N)=O)cc2cn(C3CC3)nc12` [Example 171], the negative logarithm of the EC50 (pEC50) in test [1] was more than 6.70; in test [2], more than 6.30; in test [3] it was more than 6.70.
Take `COc1cc(C(=O)NC[C@@](O)(c2ccccn2)c2cc3c(c(-c4cc(Cl)c(F)cc4F)n2)OC[C@]3(C)C(N)=O)cc2cn(C3CC3)nc12` [Example 463]: the pEC50 was more than 6.70 in test [1], more than 6.30 in test [2] and more than 6.70 in test [3].
Consider `[2H]C([2H])([2H])c1nc2ccc(C(=O)NC[C@@](O)(c3cccc(F)c3)c3cc4c(c(-c5ccc6c(c5Cl)OC(F)(F)O6)n3)OC[C@]4(C)C(N)=O)cc2o1` [Example 282], for which the pEC50 is more than 6.70 in test [1], more than 6.30 in test [2] and more than 6.70 in test [3].
For the molecule `COc1cc(C(=O)NC[C@@](O)(c2ccccc2)c2cc3c(c(-c4cc(Cl)c(F)cc4F)n2)OC[C@]3(C)C(N)=O)cc2sc(N)nc12` [Example 157], the pEC50 in test [1] is more than 6.70; in test [2], more than 6.30; in test [3], more than 6.70.
For `COc1cc(C(=O)NC[C@@](O)(c2ccccc2)c2cc3c(c(-c4cc(Cl)c(F)cc4F)n2)OC[C@]3(C)C(N)=O)cc2cc(Br)cnc12` [Example 185], the results for the pEC50 in test [1], in test [2] and in test [3] were more than 6.70, more than 6.30 and more than 6.70, respectively.
